Values after ≈ are worked out from the molar mass of the structure shown. Read-outs that look alike come from different tables or passages of the source.
Assays:
S. aureus COL MRSA = settings: for MIC S. aureus COL MRSA: MH broth pH 7.4, 16–20 h, 37 °C; for MIC S. aureus COL: supplementary CSV, ranges of Table 1 given as one number
Method: (§1) Antimicrobial activity was determined for all peptides on E. coli W3110, P. aeruginosa PAO1, A. baumannii ATCC19606, K. pneumoniae NCTC418, and methicillin-resistant S. aureus COL and for selected peptides on P. aeruginosa PA14 and the polymyxin B-resistant derivatives PA14 4.13, PA14 4.18, and PA14 2P4 as well as the clinical isolates ZEM-1A and ZEM9A, K. pneumoniae OXA-48, Enterobacter cloacae, Stenotrophomonas maltophilia, B. cenocepacia, and Staphylococus epidermis. To determine the MIC, the broth microdilution method was used.[75] A single bacterial colony was grown in LB medium overnight at 37 °C and 180 rpm shaking. The compounds were prepared as stock solutions of 2 mg/mL in sterilized milliQ deionized water, added to the first well of 96-well sterile, polypropylene round-bottom microtiter plates (TPP, untreated, Corning Incorporated, Kennebunk, USA), and diluted serially by 1/2. […] The bacterial inoculum was prepared by measuring the absorbance of the overnight culture, which was diluted to concentration of the bacteria was quantified by measuring absorbance at 600 nm and diluted to an OD600 of 0.022 in MH medium pH 7.4 (Sigma-Aldrich, Buchs, Switzerland). The sample solutions (150 μL) were mixed with 4 μL of diluted bacterial suspension with a final inoculation of about 5 × 10^5 CFU. For each test, two columns of the plate were kept for sterility control (MH medium only) and growth control (MH medium with bacterial inoculum, no compound). […] The plates were incubated at 37 °C for 16–20 h under static conditions. 15 μL of 3-(4,5-dimethylthiazol-2-yl)-2,5-diphenyltetrazolium bromide (MTT)[76] (1 mg/mL in sterilized milliQ deionized water) was added to each well, and the plates were incubated at room temperature until MTT staining was completed. The MIC was defined as the lowest concentration of the dendrimer that inhibits the visible growth of the tested bacteria (yellow) with the unaided eye.

P. aeruginosa PAO1 = system: P. aeruginosa PAO1
Method: as §1

K. pneumoniae NCTC418 = system: K. pneumoniae NCTC418
Method: as §1

E. coli W3110 = system: E. coli W3110
Method: as §1

A. baumannii ATCC19606 = system: A. baumannii ATCC19606
Method: as §1

[1] = MH broth pH 7.4, 16–20 h, 37 °C
[2] = supplementary CSV, ranges of Table 1 given as one number

SMILES	MIC S. aureus COL MRSA (S. aureus COL MRSA) [µg/mL]	MIC S. aureus COL (S. aureus COL MRSA) [µg/mL]	MIC P. aeruginosa PAO1 (P. aeruginosa PAO1; [1]) [µg/mL]	MIC P. aeruginosa PAO1 (P. aeruginosa PAO1; [2]) [µg/mL]	MIC K. pneumoniae NCTC418 (K. pneumoniae NCTC418; [1]) [µg/mL]	MIC K. pneumoniae NCTC418 (K. pneumoniae NCTC418; [2]) [µg/mL]	MIC E. coli W3110 (E. coli W3110; [1]) [µg/mL]	MIC E. coli W3110 (E. coli W3110; [2]) [µg/mL]	MIC A. baumannii ATCC19606 (A. baumannii ATCC19606; [1]) [µg/mL]	MIC A. baumannii ATCC19606 (A. baumannii ATCC19606; [2]) [µg/mL]
CC(C)C[C@@H](NC(=O)[C@@H](CC(C)C)NC(=O)[C@@H](CC(C)C)NC(=O)[C@@H](CCCCN)NC(=O)[C@@H](CC(C)C)NC(=O)[C@@H](CC(C)C)NC(=O)[C@@H](CCCCN)NC(=O)[C@@H](CC(C)C)NC(=O)[C@@H](CC(C)C)NC(=O)[C@@H](CCCCN)NC(=O)[C@H](N)CCCCN)C(N)=O [dln65, kkllkllklll]	2 to 4	3 (≈ 2.27 µM)	2 to 4	3 (≈ 2.27 µM)	4 (≈ 3.03 µM)	4 (≈ 3.03 µM)	2 to 4	3 (≈ 2.27 µM)	4 (≈ 3.03 µM)	4 (≈ 3.03 µM)
CC(C)C[C@H](NC(=O)[C@@H](CC(C)C)NC(=O)[C@H](CC(C)C)NC(=O)[C@@H](CCCCN)NC(=O)[C@H](CC(C)C)NC(=O)[C@@H](CC(C)C)NC(=O)[C@H](CCCCN)NC(=O)[C@@H](CC(C)C)NC(=O)[C@H](CC(C)C)NC(=O)[C@@H](CCCCN)NC(=O)[C@@H](N)CCCCN)C(N)=O [HP30, KkLlKlLkLlL]	64 (≈ 48.4 µM)	64 (≈ 48.4 µM)	8 to 16	12 (≈ 9.08 µM)	>64	–	8 (≈ 6.05 µM)	–	32 (≈ 24.2 µM)	32 (≈ 24.2 µM)
CC(C)C[C@H](NC(=O)[C@H](CCCCN)NC(=O)[C@H](CC(C)C)NC(=O)[C@H](CC(C)C)NC(=O)[C@@H](CCCCN)NC(=O)[C@H](N)CCCCN)C(=O)N[C@@H](CC(C)C)C(=O)N[C@@H](CCCCN)C(=O)N[C@@H](CC(C)C)C(=O)N[C@H](CC(C)C)C(=O)N[C@H](CC(C)C)C(N)=O [HP18, kkLLKLLKLll]	16 to 32	–	8 (≈ 6.05 µM)	8 (≈ 6.05 µM)	>64	–	4 to 8	6 (≈ 4.54 µM)	8 (≈ 6.05 µM)	8 (≈ 6.05 µM)
CC(C)CC(NC(=O)C(CC(C)C)NC(=O)C(CC(C)C)NC(=O)C(CCCCN)NC(=O)C(CC(C)C)NC(=O)[C@H](CC(C)C)NC(=O)C(CCCCN)NC(=O)C(CC(C)C)NC(=O)C(CC(C)C)NC(=O)C(CCCCN)NC(=O)C(N)CCCCN)C(N)=O (mixture of isomers) [sr-ln65L^6]	16 (≈ 12.1 µM)	16 (≈ 12.1 µM)	8 (≈ 6.05 µM)	8 (≈ 6.05 µM)	16 to 32	–	4 (≈ 3.03 µM)	–	8 (≈ 6.05 µM)	8 (≈ 6.05 µM)
CC(C)CC(NC(=O)C(CC(C)C)NC(=O)C(CC(C)C)NC(=O)C(CCCCN)NC(=O)C(CC(C)C)NC(=O)C(CC(C)C)NC(=O)C(CCCCN)NC(=O)C(CC(C)C)NC(=O)C(CC(C)C)NC(=O)C(CCCCN)NC(=O)C(N)CCCCN)C(N)=O (racemic) [sr-ln65]	8 (≈ 6.05 µM)	–	4 (≈ 3.03 µM)	–	16 to 32	–	4 (≈ 3.03 µM)	–	4 (≈ 3.03 µM)	–
CC(C)C[C@H](NC(=O)[C@H](CC(C)C)NC(=O)[C@H](CC(C)C)NC(=O)[C@H](CCCCN)NC(=O)[C@@H](CC(C)C)NC(=O)[C@@H](CC(C)C)NC(=O)[C@@H](CCCCN)NC(=O)[C@H](CC(C)C)NC(=O)[C@H](CC(C)C)NC(=O)[C@H](CCCCN)NC(=O)[C@@H](N)CCCCN)C(N)=O [HP9, KKLLkllKLLL]	>64	–	64 (≈ 48.4 µM)	64 (≈ 48.4 µM)	>64	–	8 (≈ 6.05 µM)	–	–	–
CC(C)C[C@H](NC(=O)[C@H](CC(C)C)NC(=O)[C@@H](CC(C)C)NC(=O)[C@@H](CCCCN)NC(=O)[C@H](CC(C)C)NC(=O)[C@H](CC(C)C)NC(=O)[C@H](CCCCN)NC(=O)[C@@H](CC(C)C)NC(=O)[C@@H](CC(C)C)NC(=O)[C@H](CCCCN)NC(=O)[C@@H](N)CCCCN)C(N)=O [HP20, KKllKLLklLL]	>64	–	16 (≈ 12.1 µM)	16 (≈ 12.1 µM)	>64	–	8 (≈ 6.05 µM)	–	32 to 64	48 (≈ 36.3 µM)

From paper PMC10258794, “To Fold or Not to Fold: Diastereomeric Optimization of an α-Helical Antimicrobial Peptide” (Journal of Medicinal Chemistry, 2023)
